Experimental data as given in the NIST ThermoML archive (doi:10.1021/acs.jced.6b00526).

Assay: refractive index (Na D-line) (dimensionless); xn = mol fraction of the nth substance listed
Conditions: 100 kPa, Liquid, Standard Abbe refractometry

OCCCCCO [1,5-pentanediol] + O
refractive index
Conditions	x2 = 0	x2 = 0.1235	x2 = 0.2586	x2 = 0.3455	x2 = 0.4864	x2 = 0.5755	x2 = 0.6777	x2 = 0.7611	x2 = 0.8474	x2 = 0.9205
288.15 K	1.4503	1.4493	1.4477	1.4463	1.4425	1.4401	1.4342	1.4253	1.4085	1.3851
293.15 K	1.449	1.4477	1.4462	1.4447	1.4411	1.4386	1.4328	1.4239	1.4073	1.384
298.15 K	1.4478	1.4464	1.4447	1.4432	1.4396	1.4371	1.4315	1.4225	1.406	1.3828
303.15 K	1.4466	1.4448	1.4431	1.4416	1.438	1.4355	1.43	1.4211	1.4048	1.3816
308.15 K	1.4454	1.4434	1.4416	1.4402	1.4367	1.4341	1.4286	1.4197	1.4035	1.3804
313.15 K	1.4441	1.4419	1.44	1.4386	1.4352	1.4326	1.4271	1.4183	1.4022	1.3793
318.15 K	1.443	1.4408	1.4386	1.4373	1.434	1.4313	1.4259	1.4171	1.401	1.3781

OCCCO [propan-1,3-diol] + O
refractive index
Conditions	x2 = 0	x2 = 0.1737	x2 = 0.2519	x2 = 0.3669	x2 = 0.4553	x2 = 0.5501	x2 = 0.6509	x2 = 0.7532	x2 = 0.8508
288.15 K	1.4407	1.4361	1.4335	1.429	1.4248	1.419	1.4107	1.3985	1.381
293.15 K	1.4393	1.4347	1.4321	1.4276	1.4234	1.4177	1.4095	1.3973	1.38
298.15 K	1.438	1.4334	1.4308	1.4263	1.4221	1.4165	1.4083	1.3962	1.379
303.15 K	1.4367	1.432	1.4295	1.425	1.4208	1.4152	1.4071	1.3951	1.378
308.15 K	1.4353	1.4306	1.4281	1.4236	1.4194	1.4139	1.4059	1.3939	1.3771
313.15 K	1.434	1.4294	1.4268	1.4223	1.4181	1.4127	1.4047	1.3929	1.3761
318.15 K	1.4327	1.4281	1.4255	1.421	1.4169	1.4115	1.4036	1.3918	1.3752
